Experimental data as given in patent publication US8426345B2, “Method of drug design” (Alchemia Limited, priority 2005, dated 2013).

Biological target: T1, Human SST5 somatostatin receptor (Homo sapiens, UniProt P35346)
T1 construct: expressed in transfected cells; host or cells: HEK-293 EBNA cells (membranes)
Test: Filter plate radio-ligand binding assay for SST5 receptor ([125I]SST-14 displacement)
Conditions: for % SST5 radio-ligand binding displaced at conc 50: compound conc 50 μM; for % SST5 radio-ligand binding displaced at conc 50 / % SST5 radio-ligand binding displaced at conc 250 / % SST5 radio-ligand binding displaced at conc 500: 2P library; for % SST5 radio-ligand binding displaced at conc 250: compound conc 250 μM; for % SST5 radio-ligand binding displaced at conc 500: compound conc 500 μM; for % SST5 radio-ligand binding displaced at conc 0.25: conc 0.25 μM; for % SST5 radio-ligand binding displaced at conc 0.25 / % SST5 radio-ligand binding displaced at conc 1.0 / % SST5 radio-ligand binding displaced at conc 10 / % SST5 radio-ligand binding displaced at conc 0.001 / % SST5 radio-ligand binding displaced at conc 0.10 / % SST5 radio-ligand binding displaced at conc 0.5: 3P library; for % SST5 radio-ligand binding displaced at conc 1.0: conc 1.0 μM; for % SST5 radio-ligand binding displaced at conc 10: conc 10 μM; for % SST5 radio-ligand binding displaced at conc 0.001: conc 0.001 μM; for % SST5 radio-ligand binding displaced at conc 0.10: conc 0.10 μM; for % SST5 radio-ligand binding displaced at conc 0.5: conc 0.5 μM

T1 sequence (P35346 whole entry): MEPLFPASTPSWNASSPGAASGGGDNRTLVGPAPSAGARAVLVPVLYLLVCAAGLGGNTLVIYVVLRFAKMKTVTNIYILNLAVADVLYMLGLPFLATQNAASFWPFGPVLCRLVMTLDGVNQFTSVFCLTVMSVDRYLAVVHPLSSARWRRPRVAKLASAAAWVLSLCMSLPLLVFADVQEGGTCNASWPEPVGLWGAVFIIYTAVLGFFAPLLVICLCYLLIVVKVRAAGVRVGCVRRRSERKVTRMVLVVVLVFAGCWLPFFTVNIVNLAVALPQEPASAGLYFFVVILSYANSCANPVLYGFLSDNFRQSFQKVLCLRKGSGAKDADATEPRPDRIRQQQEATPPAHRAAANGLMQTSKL

Row | Structure (SMILES) | % SST5 radio-ligand binding displaced at conc 0.25 | % SST5 radio-ligand binding displaced at conc 1.0 | % SST5 radio-ligand binding displaced at conc 10 | % SST5 radio-ligand binding displaced at conc 0.5 | also measured
1 | COC[C@H]1O[C@@H](SC)[C@H](NC(=O)CCCN)[C@@H](OCc2ccc3ccccc3c2)[C@@H]1O [Compound 25] |  |  |  |  | % SST5 radio-ligand binding displaced at conc 50: − (% SST5 radio-ligand binding displaced at cone (μM) −<40%); % SST5 radio-ligand binding displaced at conc 250: − (% SST5 radio-ligand binding displaced at cone (μM) −<40%); % SST5 radio-ligand binding displaced at conc 500: + (% SST5 radio-ligand binding displaced at cone (μM) 60>+>40%)
2 | NCCC(=O)NC1C(OCc2ccc3ccccc3c2)OC(COCc2ccccc2)C(O)C1OCc1ccc2ccccc2c1 (stereo not drawn) [Compound 81] | − (% SST5 radio-ligand binding displaced at cone (μM) −<40%) | ++ (% SST5 radio-ligand binding displaced at conc (μM) >60%) |  |  | 
3 | COCC1OC(OCc2ccc3ccccc3c2)C(NC(=O)CCN)C(OCc2ccc(Cl)cc2)C1O (mixture of isomers) [Compound 67] |  |  | ++ (% SST5 radio-ligand binding displaced at conc (μM) >60%) |  | 
4 | NCCCC(=O)N[C@H]1[C@@H](OCc2ccc3ccccc3c2)O[C@H](COCc2ccccc2)[C@@H](O)[C@@H]1OCc1ccc(Cl)cc1 [Compound 136] | − (% SST5 radio-ligand binding displaced at cone (μM) −<40%) | ++ (% SST5 radio-ligand binding displaced at conc (μM) >60%) |  |  | 
5 | COC[C@H]1O[C@@H](OCc2ccc3ccccc3c2)[C@H](NC(=O)CCCN)[C@H](OC)[C@@H]1O [Compound 45] |  |  |  |  | % SST5 radio-ligand binding displaced at conc 50: − (% SST5 radio-ligand binding displaced at cone (μM) −<40%); % SST5 radio-ligand binding displaced at conc 250: + (% SST5 radio-ligand binding displaced at cone (μM) 60>+>40%); % SST5 radio-ligand binding displaced at conc 500: ++ (% SST5 radio-ligand binding displaced at conc (μM) >60%)
6 | COC[C@H]1O[C@H](OCc2ccc3ccccc3c2)[C@H](NC(=O)CCN)[C@@H](OC)[C@@H]1O [Compound 5] |  |  |  |  | % SST5 radio-ligand binding displaced at conc 50: − (% SST5 radio-ligand binding displaced at cone (μM) −<40%); % SST5 radio-ligand binding displaced at conc 250: + (% SST5 radio-ligand binding displaced at cone (μM) 60>+>40%); % SST5 radio-ligand binding displaced at conc 500: ++ (% SST5 radio-ligand binding displaced at conc (μM) >60%)
7 | COC[C@H]1O[C@@H](SC)[C@H](NC(=O)CCCN)[C@@H](OCc2ccc(Cl)cc2)[C@@H]1O [Compound 24] |  |  |  |  | % SST5 radio-ligand binding displaced at conc 50: − (% SST5 radio-ligand binding displaced at cone (μM) −<40%); % SST5 radio-ligand binding displaced at conc 250: − (% SST5 radio-ligand binding displaced at cone (μM) −<40%); % SST5 radio-ligand binding displaced at conc 500: − (% SST5 radio-ligand binding displaced at cone (μM) −<40%)
8 | COC[C@H]1O[C@@H](OCc2ccc(Cl)cc2)[C@H](NC(=O)CCCN)[C@@H](OC)[C@@H]1O [Compound 27] |  |  |  |  | % SST5 radio-ligand binding displaced at conc 50: − (% SST5 radio-ligand binding displaced at cone (μM) −<40%); % SST5 radio-ligand binding displaced at conc 250: − (% SST5 radio-ligand binding displaced at cone (μM) −<40%); % SST5 radio-ligand binding displaced at conc 500: − (% SST5 radio-ligand binding displaced at cone (μM) −<40%)
9 | COC[C@H]1O[C@@H](OCc2ccc3ccccc3c2)[C@H](NC(=O)CCN)[C@H](OC)[C@@H]1O [Compound 40] |  |  |  |  | % SST5 radio-ligand binding displaced at conc 50: − (% SST5 radio-ligand binding displaced at cone (μM) −<40%); % SST5 radio-ligand binding displaced at conc 250: ++ (% SST5 radio-ligand binding displaced at conc (μM) >60%); % SST5 radio-ligand binding displaced at conc 500: ++ (% SST5 radio-ligand binding displaced at conc (μM) >60%)
10 | COC[C@H]1O[C@H](OCc2ccc3ccccc3c2)[C@H](NC(=O)CCN)[C@@H](OCc2nc3ccccc3s2)[C@@H]1O [Compound 111] | − (% SST5 radio-ligand binding displaced at cone (μM) −<40%) | − (% SST5 radio-ligand binding displaced at cone (μM) −<40%) |  |  | 
11 | COC1C(O)C(COCc2ccccc2)OC(OCc2ccc(Cl)cc2)C1NC(=O)CN (mixture of isomers) [Compound 176] | − (% SST5 radio-ligand binding displaced at cone (μM) −<40%) | − (% SST5 radio-ligand binding displaced at cone (μM) −<40%) |  |  | 
12 | COC1C(O)C(COCc2ccccc2)OC(OCc2ccc3ccccc3c2)C1NC(=O)CCN (mixture of isomers) [Compound 93] | − (% SST5 radio-ligand binding displaced at cone (μM) −<40%) | + (% SST5 radio-ligand binding displaced at cone (μM) 60>+>40%) |  |  | 
13 | COCC1OC(OCc2ccc(Cl)cc2)C(NC(=O)CN)C(OCc2ccc3ccccc3c2)C1O (mixture of isomers) [Compound 163] |  | − (% SST5 radio-ligand binding displaced at cone (μM) −<40%) | ++ (% SST5 radio-ligand binding displaced at conc (μM) >60%) | − (% SST5 radio-ligand binding displaced at cone (μM) −<40%) | % SST5 radio-ligand binding displaced at conc 0.001: − (% SST5 radio-ligand binding displaced at cone (μM) −<40%); % SST5 radio-ligand binding displaced at conc 0.10: − (% SST5 radio-ligand binding displaced at cone (μM) −<40%)
14 | NCCC(=O)NC1C(OCc2ccc3ccccc3c2)OC(COCc2ccccc2)C(O)C1OCc1ccc(Cl)cc1 (mixture of isomers) [Compound 71] | − (% SST5 radio-ligand binding displaced at cone (μM) −<40%) | ++ (% SST5 radio-ligand binding displaced at conc (μM) >60%) |  |  | 
15 | NCCC(=O)NC1C(OCc2ccc3ccccc3c2)OC(COCc2ccc3ccccc3c2)C(O)C1OCc1ccc2ccccc2c1 (stereo not drawn) [Compound 79] | − (% SST5 radio-ligand binding displaced at cone (μM) −<40%) | ++ (% SST5 radio-ligand binding displaced at conc (μM) >60%) |  |  | 
16 | COC1C(O)C(COCc2ccc3ccccc3c2)OC(OCc2ccc3ccccc3c2)C1NC(=O)CCCN (mixture of isomers) [Compound 122] |  |  | ++ (% SST5 radio-ligand binding displaced at conc (μM) >60%) | ++ (% SST5 radio-ligand binding displaced at conc (μM) >60%) | 
17 | COC[C@H]1OC(OCc2ccc(Cl)cc2)[C@H](NC(=O)CN)[C@@H](OCc2ccc(Cl)cc2)[C@@H]1O (single isomer, unassigned) [Compound 170] | − (% SST5 radio-ligand binding displaced at cone (μM) −<40%) | − (% SST5 radio-ligand binding displaced at cone (μM) −<40%) |  |  | 
18 | NCCC(=O)NC1C(OCc2ccc3ccccc3c2)OC(COCc2ccccc2)C(O)C1OCc1ccc2ccccc2c1 (stereo not drawn) [Compound 82] | + (% SST5 radio-ligand binding displaced at cone (μM) 60>+>40%) | ++ (% SST5 radio-ligand binding displaced at conc (μM) >60%) |  |  | 
19 | COCC1OC(OCc2ccc3ccccc3c2)C(NC(=O)CCN)C(OCc2ccc3ccccc3c2)C1O (mixture of isomers) [Compound 69] |  | ++ (% SST5 radio-ligand binding displaced at conc (μM) >60%) | ++ (% SST5 radio-ligand binding displaced at conc (μM) >60%) | ++ (% SST5 radio-ligand binding displaced at conc (μM) >60%) | % SST5 radio-ligand binding displaced at conc 0.001: + (% SST5 radio-ligand binding displaced at cone (μM) 60>+>40%); % SST5 radio-ligand binding displaced at conc 0.10: ++ (% SST5 radio-ligand binding displaced at conc (μM) >60%)
20 | COC[C@H]1O[C@@H](OCc2ccc3ccccc3c2)[C@H](NC(=O)CCN)[C@H](OCc2ccc3ccccc3c2)[C@@H]1O [Compound 85] |  |  | ++ (% SST5 radio-ligand binding displaced at conc (μM) >60%) | ++ (% SST5 radio-ligand binding displaced at conc (μM) >60%) | 
21 | COCC1OC(OCc2ccc3ccccc3c2)C(NC(=O)CCN)C(OCc2ccccc2)C1O (mixture of isomers) [Compound 64] |  | ++ (% SST5 radio-ligand binding displaced at conc (μM) >60%) | ++ (% SST5 radio-ligand binding displaced at conc (μM) >60%) | ++ (% SST5 radio-ligand binding displaced at conc (μM) >60%) | % SST5 radio-ligand binding displaced at conc 0.001: − (% SST5 radio-ligand binding displaced at cone (μM) −<40%); % SST5 radio-ligand binding displaced at conc 0.10: + (% SST5 radio-ligand binding displaced at cone (μM) 60>+>40%)
22 | COC[C@H]1O[C@H](OCc2ccc3ccccc3c2)[C@H](NC(=O)CCCN)[C@@H](OCc2ccc(Cl)cc2)[C@@H]1O [Compound 134] |  | ++ (% SST5 radio-ligand binding displaced at conc (μM) >60%) | ++ (% SST5 radio-ligand binding displaced at conc (μM) >60%) | ++ (% SST5 radio-ligand binding displaced at conc (μM) >60%) | % SST5 radio-ligand binding displaced at conc 0.001: + (% SST5 radio-ligand binding displaced at cone (μM) 60>+>40%); % SST5 radio-ligand binding displaced at conc 0.10: ++ (% SST5 radio-ligand binding displaced at conc (μM) >60%)
23 | COC1C(O)C(COCc2ccccc2)OC(OCc2ccc3ccccc3c2)C1NC(=O)CCCN (mixture of isomers) [Compound 123] |  |  | − (% SST5 radio-ligand binding displaced at cone (μM) −<40%) | − (% SST5 radio-ligand binding displaced at cone (μM) −<40%) | 
